Where “and” joins values, the source holds several entries; their conditions need not be identical. Equal entries are not always repeated. Inconclusive results and toxic doses are left out. No stated cut-off is given here; in the data, active means T/C of 150% or more; inactive means T/C below 125%.
System: L1210 leukemia ip in BDF1 mice, survival T/C
Experiment: NCI In Vivo Anticancer Drug Screen. Data for tumor model L1210 Leukemia (intraperitoneal) in B6D2F1 (BDF1) mice
Conditions: endpoint: mean survival time, higher = longer survival
Summary of the method: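 In this screen, tumor-bearing mice given compound are compared to those given vehicle, and their survival values are reported as a treated-to-control quotient.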

[1] = dose: 100.0 mg/kg/injection, schedule: Q01DX009 (ip), vehicle: Klucel (hydroxypropylcellulose) (HPC)
[2] = dose: 100.0 mg/kg/injection, schedule: Q04DX003 (ip), vehicle: Klucel (hydroxypropylcellulose) (HPC)
[3] = dose: 200.0 mg/kg/injection, schedule: Q01DX009 (ip), vehicle: Klucel (hydroxypropylcellulose) (HPC)
[4] = dose: 200.0 mg/kg/injection, schedule: Q04DX003 (ip), vehicle: Klucel (hydroxypropylcellulose) (HPC)
[5] = dose: 400.0 mg/kg/injection, schedule: Q01DX009 (ip), vehicle: Klucel (hydroxypropylcellulose) (HPC)
[6] = dose: 400.0 mg/kg/injection, schedule: Q04DX003 (ip), vehicle: Klucel (hydroxypropylcellulose) (HPC)
[7] = dose: 100.0 mg/kg/injection, schedule: Q01DX009 (ip), vehicle: saline with Tween-80
[8] = dose: 100.0 mg/kg/injection, schedule: Q04DX003 (ip), vehicle: saline with Tween-80
[9] = dose: 200.0 mg/kg/injection, schedule: Q01DX009 (ip), vehicle: saline with Tween-80
[10] = dose: 200.0 mg/kg/injection, schedule: Q04DX003 (ip), vehicle: saline with Tween-80
[11] = dose: 400.0 mg/kg/injection, schedule: Q01DX009 (ip), vehicle: saline with Tween-80
[12] = dose: 400.0 mg/kg/injection, schedule: Q04DX003 (ip), vehicle: saline with Tween-80
[13] = dose: 25.0 mg/kg/injection, schedule: Q04DX003 (ip), vehicle: Klucel (hydroxypropylcellulose) (HPC)
[14] = dose: 50.0 mg/kg/injection, schedule: Q04DX003 (ip), vehicle: Klucel (hydroxypropylcellulose) (HPC)

Measured: T/C

CCC(O)c1cnc(OCc2ccccc2)nc1OCc1ccccc1 (stereo not drawn)
inactive: [1] 94 % of control | [2] 96 % of control | [3] 95 % of control | [4] 95 % of control | [5] 90 % of control | [6] 100 % of control

C=C(C(N)=O)c1cc(Cl)ccc1Cl
inactive: [7] 96 % of control | [8] 103 % of control | [9] 92 % of control | [10] 101 % of control | [11] 92 % of control | [12] 94 % of control

[Cl][Hg][Cl].c1ccc(CSc2ccccc2)cc1
inactive: dose: 5.0 mg/kg/injection, schedule: Q01DX001 (ip), vehicle: carboxymethylcellulose (CMC) 105 % of control

CCOC(=O)C(Cc1c(C)c(OC)c(CC(C(=O)OCC)C(=O)OCC)c(C)c1OC)C(=O)OCC
inactive: [7] 101 % of control | [8] 93 % of control | [9] 97 % of control | [10] 88 % of control | [11] 92 % of control | [12] 90 % of control

COC(=O)NC1CC=CCC1I (stereo not drawn)
inactive: [8] 100 % of control | [10] 102 % of control | [12] 102 % of control

CCC(Cl)COP(=O)(OC(c1ccc(Cl)c(Cl)c1)P(=O)(OCC(Cl)CC)OCC(Cl)CC)C(CC)CCl (stereo not drawn)
inactive: dose: 100.0 mg/kg/injection, schedule: Q01DX001 (ip), vehicle: saline with Tween-80 104 % of control | dose: 200.0 mg/kg/injection, schedule: Q01DX001 (ip), vehicle: saline with Tween-80 95 % of control | dose: 400.0 mg/kg/injection, schedule: Q01DX001 (ip), vehicle: saline with Tween-80 101 % of control

O=C(O)c1cc(C(=O)O)cc([N+](=O)[O-])c1
inactive: dose: 50.0 mg/kg/injection, schedule: Q01DX009 (ip), vehicle: saline with Tween-80 93 % of control | [7] 91 % of control | [8] 95 % of control | [10] 95 % of control

O=C(COc1ccc(Cl)cc1)c1ccccc1
inactive: [7] 99 % of control | [9] 87 % of control | [11] 100 % of control

Cc1c(CCl)c(C)c(CCl)c(C)c1CCl
inactive: dose: 12.0 mg/kg/injection, schedule: Q04DX003 (ip), vehicle: Klucel (hydroxypropylcellulose) (HPC) 105 % of control | dose: 25.0 mg/kg/injection, schedule: Q01DX009 (ip), vehicle: Klucel (hydroxypropylcellulose) (HPC) 88 % of control | [13] 100 % of control | dose: 50.0 mg/kg/injection, schedule: Q01DX009 (ip), vehicle: Klucel (hydroxypropylcellulose) (HPC) 100 % of control | [14] 100 % of control

CCCCCCCCCCCCCCCC(N)=O
inactive: [1] 93 % of control | [2] 90 % of control | [3] 102 % of control | [4] 87 % of control | [5] 94 % of control | [6] 98 % of control

O=C(Nc1ccc(Cl)cc1C(=O)c1ccccc1)c1ccc(Cl)cc1
inactive: dose: 100.0 mg/kg/injection, schedule: Q04DX002 (ip), vehicle: Klucel (hydroxypropylcellulose) (HPC) 92 % of control | dose: 200.0 mg/kg/injection, schedule: Q04DX002 (ip), vehicle: Klucel (hydroxypropylcellulose) (HPC) 89 % of control | dose: 400.0 mg/kg/injection, schedule: Q04DX002 (ip), vehicle: Klucel (hydroxypropylcellulose) (HPC) 95 % of control

COC(=O)CC(Cc1cc(OC)ccc1OC)(C(=O)OC)C(=O)OC
inactive: dose: 12.5 mg/kg/injection, schedule: Q04DX003 (ip), vehicle: Klucel (hydroxypropylcellulose) (HPC) 102 % of control | [13] 94 % of control | [14] 98 % of control | dose: 100.0 mg/kg/injection, schedule: Q01DX001 (ip), vehicle: Klucel (hydroxypropylcellulose) (HPC) 106 % of control | [2] 105 % of control | dose: 200.0 mg/kg/injection, schedule: Q01DX001 (ip), vehicle: Klucel (hydroxypropylcellulose) (HPC) 97 % of control | [4] 103 % of control | dose: 400.0 mg/kg/injection, schedule: Q01DX001 (ip), vehicle: Klucel (hydroxypropylcellulose) (HPC) 98 % of control | [6] 105 % of control

NC(=O)CN1C(=O)C2C3CCC(O3)C2C1=O (stereo not drawn)
inactive: dose: 25.0 mg/kg/injection, schedule: Q04DX003 (ip), vehicle: saline with Tween-80 89 % of control | dose: 50.0 mg/kg/injection, schedule: Q04DX003 (ip), vehicle: saline with Tween-80 89 % of control | [8] 96 % of control | dose: 100.0 mg/kg/injection, schedule: Q04DX003 (ip), vehicle: saline 107 % of control | dose: 400.0 mg/kg/injection, schedule: Q04DX003 (ip), vehicle: saline 95 % of control

NC(N)=N/N=C(\c1ccc(F)cc1)C1CC1
inactive: dose: 15.0 mg/kg/injection, schedule: Q01DX Z (ip), vehicle: methylcellulose (MC) 94 % of control | dose: 15.0 mg/kg/injection, schedule: Q01DX Z (oral), vehicle: methylcellulose (MC) 110 % of control | dose: 30.0 mg/kg/injection, schedule: Q01DX Z (ip), vehicle: methylcellulose (MC) 95 % of control | dose: 30.0 mg/kg/injection, schedule: Q01DX Z (oral), vehicle: methylcellulose (MC) 105 % of control | dose: 60.0 mg/kg/injection, schedule: Q01DX Z (oral), vehicle: methylcellulose (MC) 96 % of control | dose: 120.0 mg/kg/injection, schedule: Q01DX Z (oral), vehicle: methylcellulose (MC) 104 % of control

Cc1cc(C)c(NC(=S)NC(=O)c2cccc3ccccc23)c(C)c1
inactive: [1] 98 % of control | [2] 103 % of control | [3] 106 % of control | [4] 97 % of control | [5] 95 % of control | [6] 103 % of control

CN1CCN(c2nn3nnnc3c3ccccc23)CC1
inactive: dose: 20.0 mg/kg/injection, schedule: Q04DX003 (ip), vehicle: saline 98 % of control | dose: 40.0 mg/kg/injection, schedule: Q04DX003 (ip), vehicle: saline 104 % of control | dose: 80.0 mg/kg/injection, schedule: Q04DX003 (ip), vehicle: saline 95 % of control

O=c1[nH]cc(B(O)O)c(=O)[nH]1
inactive: dose: 100.0 mg/kg/injection, schedule: Q01DX001 (ip), vehicle: saline 94 % of control | dose: 200.0 mg/kg/injection, schedule: Q01DX001 (ip), vehicle: saline 98 % of control | dose: 400.0 mg/kg/injection, schedule: Q01DX001 (ip), vehicle: saline 98 % of control

CCCCCCCNc1ccc(S(=O)(=O)c2ccc(NCCCCCCC)c([N+](=O)[O-])c2)cc1[N+](=O)[O-]
inactive: dose: 25.0 mg/kg/injection, schedule: Q01DX009 (ip), vehicle: DMSO 94 % of control | dose: 50.0 mg/kg/injection, schedule: Q01DX009 (ip), vehicle: DMSO 98 % of control | dose: 100.0 mg/kg/injection, schedule: Q01DX005 (ip), vehicle: DMSO 90 % of control | dose: 100.0 mg/kg/injection, schedule: Q01DX009 (ip), vehicle: DMSO 94 % of control and 98 % of control | dose: 100.0 mg/kg/injection, schedule: Q04DX002 (ip), vehicle: DMSO 100 % of control | dose: 200.0 mg/kg/injection, schedule: Q01DX009 (ip), vehicle: DMSO 101 % of control | dose: 200.0 mg/kg/injection, schedule: Q04DX002 (ip), vehicle: DMSO 88 % of control | dose: 400.0 mg/kg/injection, schedule: Q01DX005 (ip), vehicle: DMSO 90 % of control | dose: 400.0 mg/kg/injection, schedule: Q01DX009 (ip), vehicle: DMSO 100 % of control | dose: 400.0 mg/kg/injection, schedule: Q04DX002 (ip), vehicle: DMSO 96 % of control

Source: PubChem BioAssay AID248 (DTP/NCI, 2004)
